Measurements published in patent publication US20260283924A1, “TOPICAL COMPOSITIONS FOR PROMOTING HAIR GROWTH” (ESTETRA SRL, priority 2023, published 2026).

Columns and labels:
[1] = system: terminal and intermediate hair follicles from affected and non-affected areas of FPHL donors; test: Female pattern hair loss (FPHL) donor hair follicle organ culture (ex vivo model), Example 9; type: cell-based, human; conditions: 3 μM; for microscopic hair cycle staging: anagen: HFs from non-affected (terminal) and affected (terminal and intermediate) scalp, preliminary, 2 donors; for hair matrix keratinocytes proliferation: terminal HFs from non-affected and affected scalp; for versican expression: terminal and intermediate HFs from non-affected scalp
Text: Example 7 is repeated for female donor subjects suffering from pattern hair loss (FPHL), with a few modifications. In brief, terminal and intermediate hair follicles (HF) from affected (vertex) and non-affected (occipital) areas were obtained from female donors diagnosed to have FPHL (FIG. 34). After microdissection from skin as described in the art (Edelkamp et al., Methods Mol Biol, 2020, 2154:105-119; and Langan et al., Exp Dermatol, 2015 December; 24(12):903-1), HFs are placed in adequate culture medium and allowed a 24 h rest period to allow them to recover from the trauma of microdissection. Test substance (either vehicle (0.03% EtOH) or E4 at concentrations of 3 μM) was added to the medium at the end of the 24 h. Total culturing time was 3-5 days depending on the stage of the HFs in the vehicle group. The experimental design is depicted in FIG. 35. The same parameters as those described in Example 7 were investigated.
[…] Three additional donors still have to be collected.

[2] = system: occipital hair follicles (healthy donor); test: Healthy donor hair follicle organ culture (ex vivo model), Example 8; type: cell-based, human; conditions: for K15 expression in the suprabulbar outer root sheath / number of cells (K15) in the suprabulbar outer root sheath: 300 nM; for density of cells in the dermal cup of anagen HFs / density of cells in the dermal papilla / density of cells in the dermal papilla stalk / hair matrix keratinocyte proliferation / total number of cells in the dermal cup of anagen HFs / total number of cells in the dermal papilla / total number of cells in the dermal papilla stalk: 3 μM
Method: In brief, 24 full-length occipital hair follicles (HF) were obtained from one healthy donor. […] Test substance (either vehicle (0.03% EtOH), E2 at concentration of 300 nM or E4 at concentrations of 3 μM or 300 nM) was added to the medium at the end of the 24 h. Total culturing time was 5 days depending on the stage of the HFs in the vehicle group. The experimental design is depicted in FIG. 23.

[3] = system: Female wild-type (C57BL/6J) mice; test: In vivo LPS-induced delayed wound healing model: uterine weight and morphology (systemic effect), Example 4; conditions: topical over wounds, 60 μl total, day -1 to day 4; uteri at day 5
[4] = intermediate HFs from affected scalp
[5] = intermediate HFs from non-affected area
[6] = intermediate HFs from non-affected scalp
[7] = intermediate HFs from non-affected scalp, listed as estetrol
[8] = terminal HFs from non-affected scalp
[9] = terminal HFs from non-affected scalp, listed as estetrol
[10] = 300 nM and 3 μM, listed as Estetrol

## C[C@]12CC[C@@H]3c4ccc(O)cc4CC[C@H]3[C@@H]1[C@@H](O)[C@@H](O)[C@@H]2O [Formulation E4, 1,3,5 (10)-estratrien-3,15alpha,16alpha,17beta-tetrol]
[1]
  hair matrix keratinocytes apoptosis: without affecting hair matrix keratinocytes apoptosis
  microscopic hair cycle staging: anagen: prolonged anagen
  hair matrix keratinocytes proliferation: tendentially increased hair matrix keratinocytes proliferation
  versican expression: tendentially increased versican expression
[1]; HFs from affected area
  dermal papilla inductivity (versican expression and alkaline phosphatase activity): not strikingly altered
[1]; listed as estetrol
  microscopic hair cycle staging: anagen: prolongs anagen
  hair matrix keratinocytes proliferation: tendentially increases hair matrix keratinocytes proliferation
  versican expression: tendentially increases versican expression
[1]; [4]
  density of dermal papilla cells: tendentially increased the density
  total number of dermal papilla cells: tendentially increased
[1]; [5]
  density of dermal papilla cells: tendentially decreases the density
  total number of cells in the dermal cup: increases
[1]; [6]
  K15 expression, bulge basal layer: tendentially increased K15 expression
  area size of the dermal papilla: tendentially increased
  density of dermal papilla stalk cells: tendentially decreased the density of dermal papilla stalk cells
  total number of cells of the dermal papilla: tendentially increased the total number of cells
[1]; [7]
  area size of the dermal papilla: increases
  density of dermal papilla stalk cells: tendentially decreased
  total number of cells of the dermal papilla: increases the total DP cell number
[1]; terminal HFs from affected scalp
  proliferation of K15+ cells, bulge basal layer: increased proliferation of K15+ cells
[1]; terminal HFs from non-affected and intermediate HFs from affected scalp
  proliferation of K15+ cells, suprabulbar outer root sheath: increased proliferation of K15+ cells
[1]; terminal HFs from non-affected area
  density of dermal papilla stalk cells: without influencing their density
[1]; [8]
  K15 expression, suprabulbar outer root sheath: tendentially increased K15 expression
  area size of the dermal papilla stalk: significantly decreased
  number of K15 positive cells, suprabulbar outer root sheath: tendentially increased
  total number of cells in the dermal cup: significantly reduced the total number of cells in the dermal cup
  total number of cells of the dermal papilla stalk: significantly decreased the total number of cells
[1]; [9]
  area size of the dermal papilla stalk: significantly decreases
  total number of cells in the dermal cup: significantly reduces
  total number of cells of the dermal papilla stalk: significantly decreases the total number
[1]; terminal and intermediate HFs from non-affected area
  alkaline phosphatase activity (dermal papilla inductivity): tendential increase
[2]
  K15 expression in the suprabulbar outer root sheath: tendentially increased
  number of cells (K15) in the suprabulbar outer root sheath: tendentially increased
  density of cells in the dermal cup of anagen HFs: significantly decreased
  density of cells in the dermal papilla: tendentially decreased
  density of cells in the dermal papilla stalk: decreased
  hair matrix keratinocyte proliferation: tendentially increased
  total number of cells in the dermal cup of anagen HFs: significantly decreased
  total number of cells in the dermal papilla: tendentially decreased
  total number of cells in the dermal papilla stalk: decreased
[2]; 300 nM and 3 μM
  area of the dermal papilla: increased
  hair shaft production (reduction vs vehicle): tendentially
  microscopic hair cycle: anagen: maintained HFs in anagen
  number of CD34+ cells in the suprabulbar outer root sheath: decreased
[2]; [10]
  area of the dermal papilla: increases the area
  microscopic hair cycle: anagen: maintain hair follicles in anagen
  number of CD34+ cells in the suprabulbar outer root sheath: decreases the number of CD34+ cells
[2]; listed as estetrol
  K15 expression in the suprabulbar outer root sheath: tendentially increase K15 expression
  number of cells (K15) in the suprabulbar outer root sheath: tendentially increase
[2]; 3 μM compared with 300 nM
  microscopic hair cycle: anagen maintenance: even more prominently
[2]; listed as Estetrol
  density of cells in the dermal cup of anagen HFs: significantly decreases
  density of cells in the dermal papilla: tendentially decreases
  density of cells in the dermal papilla stalk: decreases the density of cells in the dermal papilla stalk
  hair matrix keratinocyte proliferation: increased
  total number of cells in the dermal cup of anagen HFs: significantly decreases
  total number of cells in the dermal papilla: tendentially decreases
  total number of cells in the dermal papilla stalk: tendentially
[3]
  uterine weight and morphology: affects uterine weight in a dose-dependent manner
